The text below walks through data of ChEMBL document CHEMBL2176988 (J Med Chem, 2012).

In assay [1] the target is T1, Neuronal acetylcholine receptor; alpha4/beta2 (Homo sapiens, UniProt P17787+P43681). Briefly: Partial agonist activity at alpha4beta2 nAChR in human SH-EP1 cells assessed as calcium flux by calcium4-based FLIPR assay. The assay is classed as functional, cell-based. (Calcium assays in cells follow changes in intracellular calcium, usually with a dye or a luminescent sensor.)

In assay [2] the target is T1, Neuronal acetylcholine receptor; alpha4/beta2. Nature of the assay: Displacement of [3H]nicotine from alpha4beta2 nAChR in human SH-EP1 cells after 2 hrs by liquid scintillation assay. The assay is classed as cell-based.
Assay [3] has as its target T2, Neuronal acetylcholine receptor; alpha3/beta4 (Homo sapiens, UniProt P30926+P32297). Briefly: Agonist activity at human alpha3beta4 nAChR expressed in CHO cells assessed as calcium flux by calcium4-based FLIPR assay relative to nicotine. The assay is classed as functional, cell-based.
For assay [4], the target named is Neuronal acetylcholine receptor; alpha4/beta2 (Rattus norvegicus, UniProt P09483+P12390). Briefly: Displacement of [3H]epibatidine from alpha4beta2 nAChR in Sprague-Dawley rat cortex after 2 hrs by liquid scintillation counting. (Loss of bound radioactivity is the signal in a displacement assay; it reports binding, not function.)
Assay [5] concerns the target T2, Neuronal acetylcholine receptor; alpha3/beta4. Briefly: Displacement of [3H]epibatidine from human alpha3beta4 nAChR expressed in CHO cells after 2 hrs by liquid scintillation counting. The assay is classed as cell-based.
Assay [6] concerns the target Neuronal acetylcholine receptor subunit alpha-7 (Homo sapiens, UniProt P36544). Nature of the assay: Displacement of [3H]epibatidine from human alpha7 nAChR expressed in CHO cells after 2 hrs by liquid scintillation counting. Format: cell-based.
In assay [7] the target is T2, Neuronal acetylcholine receptor; alpha3/beta4. Briefly: Agonist activity at human alpha3beta4 nAChR expressed in CHO cells assessed as calcium flux by calcium4-based FLIPR assay. Format: functional, cell-based.
The target in assay [8] is T1, Neuronal acetylcholine receptor; alpha4/beta2. Briefly: Partial agonist activity at alpha4beta2 nAChR in human SH-EP1 cells assessed as calcium flux by calcium4-based FLIPR assay relative to nicotine. The assay is classed as functional, cell-based.
Assay [9] has the same target. Briefly: Agonist activity at alpha4beta2 nAChR in human SH-EP1 cells assessed as calcium flux by calcium4-based FLIPR assay. The assay is classed as functional, cell-based.
For assay [10] the target is unchanged. Briefly: Agonist activity at alpha4beta2 nAChR in human SH-EP1 cells assessed as calcium flux by calcium4-based FLIPR assay relative to nicotine. Format: functional, cell-based.

The term EC50 denotes the concentration at which the effect is half-maximal. What is called Ki is the dissociation constant of the complex between target and ligand, obtained from inhibition or displacement. The low end stands for a stronger hold on the target, the high end for a looser hold on the target. One may read the Emax as the greatest response seen or fitted, relative to the assay's reference.

Structures are written as SMILES.

T2 sequence (P30926 whole entry): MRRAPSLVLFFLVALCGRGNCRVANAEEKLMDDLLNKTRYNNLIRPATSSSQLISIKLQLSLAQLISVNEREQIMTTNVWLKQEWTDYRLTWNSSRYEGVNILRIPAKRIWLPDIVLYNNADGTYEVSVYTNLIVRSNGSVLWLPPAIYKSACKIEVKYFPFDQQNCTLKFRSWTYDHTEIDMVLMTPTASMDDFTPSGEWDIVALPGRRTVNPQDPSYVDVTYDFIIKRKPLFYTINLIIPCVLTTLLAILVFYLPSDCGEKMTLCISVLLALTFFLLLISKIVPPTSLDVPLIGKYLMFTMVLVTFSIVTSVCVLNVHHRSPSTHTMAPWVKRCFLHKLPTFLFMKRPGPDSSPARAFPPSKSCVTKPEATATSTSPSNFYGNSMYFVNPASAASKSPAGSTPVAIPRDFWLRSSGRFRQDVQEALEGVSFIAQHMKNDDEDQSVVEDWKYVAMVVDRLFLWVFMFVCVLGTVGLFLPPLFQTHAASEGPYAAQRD
T2 sequence (P32297 whole entry): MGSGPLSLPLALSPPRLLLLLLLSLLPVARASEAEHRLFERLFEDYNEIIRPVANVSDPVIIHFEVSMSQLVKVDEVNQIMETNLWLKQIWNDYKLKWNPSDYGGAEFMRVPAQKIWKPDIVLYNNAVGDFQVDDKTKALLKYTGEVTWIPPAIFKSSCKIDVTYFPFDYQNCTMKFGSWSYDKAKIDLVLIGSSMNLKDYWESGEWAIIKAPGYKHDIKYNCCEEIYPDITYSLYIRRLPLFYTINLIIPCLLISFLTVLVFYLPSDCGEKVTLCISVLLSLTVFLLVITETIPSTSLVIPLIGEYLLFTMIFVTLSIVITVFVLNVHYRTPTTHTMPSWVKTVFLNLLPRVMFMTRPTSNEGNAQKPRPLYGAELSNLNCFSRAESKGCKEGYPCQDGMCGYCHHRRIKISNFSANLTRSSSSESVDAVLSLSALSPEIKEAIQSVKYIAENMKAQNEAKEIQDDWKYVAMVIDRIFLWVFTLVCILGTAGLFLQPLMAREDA
Chain of Neuronal acetylcholine receptor; alpha4/beta2 (Rattus norvegicus, UniProt P09483+P12390) (P09483 whole entry): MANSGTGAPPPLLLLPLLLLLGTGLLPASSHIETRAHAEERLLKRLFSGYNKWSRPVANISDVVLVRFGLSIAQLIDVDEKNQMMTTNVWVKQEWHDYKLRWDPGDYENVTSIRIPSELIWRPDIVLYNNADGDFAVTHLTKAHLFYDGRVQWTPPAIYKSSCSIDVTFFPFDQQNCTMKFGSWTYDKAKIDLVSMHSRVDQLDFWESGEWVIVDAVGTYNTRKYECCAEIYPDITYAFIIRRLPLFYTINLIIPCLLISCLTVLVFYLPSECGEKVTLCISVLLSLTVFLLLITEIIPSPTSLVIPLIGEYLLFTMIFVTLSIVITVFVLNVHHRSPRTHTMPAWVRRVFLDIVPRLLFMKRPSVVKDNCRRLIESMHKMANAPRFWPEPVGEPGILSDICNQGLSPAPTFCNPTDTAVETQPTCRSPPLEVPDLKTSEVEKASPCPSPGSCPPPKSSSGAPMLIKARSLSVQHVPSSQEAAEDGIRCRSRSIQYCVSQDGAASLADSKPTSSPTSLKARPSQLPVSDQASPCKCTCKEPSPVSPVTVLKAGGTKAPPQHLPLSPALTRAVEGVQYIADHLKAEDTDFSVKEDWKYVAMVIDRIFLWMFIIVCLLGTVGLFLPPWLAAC
Chain of Neuronal acetylcholine receptor; alpha4/beta2 (Rattus norvegicus, UniProt P09483+P12390) (P12390 whole entry): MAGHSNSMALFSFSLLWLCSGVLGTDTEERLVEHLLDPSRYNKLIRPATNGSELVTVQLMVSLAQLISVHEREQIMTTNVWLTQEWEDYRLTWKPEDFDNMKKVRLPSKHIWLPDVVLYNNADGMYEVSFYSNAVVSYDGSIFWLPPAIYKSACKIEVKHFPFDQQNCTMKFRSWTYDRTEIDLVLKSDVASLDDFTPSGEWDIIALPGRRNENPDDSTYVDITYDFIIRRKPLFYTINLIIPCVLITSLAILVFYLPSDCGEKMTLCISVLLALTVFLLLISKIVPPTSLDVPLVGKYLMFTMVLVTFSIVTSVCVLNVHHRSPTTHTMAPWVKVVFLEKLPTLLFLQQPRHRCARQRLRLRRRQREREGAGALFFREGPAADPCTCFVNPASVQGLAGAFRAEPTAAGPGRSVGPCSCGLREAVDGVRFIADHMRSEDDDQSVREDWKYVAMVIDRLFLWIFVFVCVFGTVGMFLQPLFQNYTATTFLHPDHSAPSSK
T1 sequence (P17787 whole entry): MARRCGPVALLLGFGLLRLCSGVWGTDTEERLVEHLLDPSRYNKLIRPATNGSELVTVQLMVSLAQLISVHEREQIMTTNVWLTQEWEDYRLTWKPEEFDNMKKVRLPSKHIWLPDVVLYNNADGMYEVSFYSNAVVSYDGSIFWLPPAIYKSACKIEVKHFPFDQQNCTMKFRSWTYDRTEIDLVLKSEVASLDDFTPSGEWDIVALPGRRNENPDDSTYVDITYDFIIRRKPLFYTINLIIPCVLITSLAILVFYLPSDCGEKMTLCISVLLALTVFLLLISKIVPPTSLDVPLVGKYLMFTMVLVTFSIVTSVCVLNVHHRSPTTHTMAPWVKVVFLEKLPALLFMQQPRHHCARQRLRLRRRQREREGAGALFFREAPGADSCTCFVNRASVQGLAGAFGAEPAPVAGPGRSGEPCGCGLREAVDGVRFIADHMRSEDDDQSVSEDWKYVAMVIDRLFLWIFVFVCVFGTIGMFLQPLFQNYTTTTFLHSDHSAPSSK
T1 sequence (P43681 whole entry): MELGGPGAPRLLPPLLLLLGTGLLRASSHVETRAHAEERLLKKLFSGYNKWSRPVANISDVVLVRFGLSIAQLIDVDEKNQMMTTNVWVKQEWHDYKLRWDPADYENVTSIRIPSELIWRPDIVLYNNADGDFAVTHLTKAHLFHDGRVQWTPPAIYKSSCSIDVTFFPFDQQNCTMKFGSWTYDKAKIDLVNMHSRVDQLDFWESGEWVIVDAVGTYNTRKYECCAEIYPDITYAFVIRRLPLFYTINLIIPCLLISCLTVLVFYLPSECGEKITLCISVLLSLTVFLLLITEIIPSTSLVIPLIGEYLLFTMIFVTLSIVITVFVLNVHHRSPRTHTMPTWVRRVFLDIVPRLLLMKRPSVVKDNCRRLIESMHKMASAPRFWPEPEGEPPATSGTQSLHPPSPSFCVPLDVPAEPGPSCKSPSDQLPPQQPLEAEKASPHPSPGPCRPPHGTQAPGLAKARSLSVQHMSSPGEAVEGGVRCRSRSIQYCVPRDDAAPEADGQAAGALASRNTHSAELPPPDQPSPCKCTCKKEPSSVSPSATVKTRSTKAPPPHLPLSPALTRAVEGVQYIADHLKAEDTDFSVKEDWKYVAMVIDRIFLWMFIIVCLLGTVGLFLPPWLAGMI
Chain of Neuronal acetylcholine receptor subunit alpha-7 (P36544 whole entry): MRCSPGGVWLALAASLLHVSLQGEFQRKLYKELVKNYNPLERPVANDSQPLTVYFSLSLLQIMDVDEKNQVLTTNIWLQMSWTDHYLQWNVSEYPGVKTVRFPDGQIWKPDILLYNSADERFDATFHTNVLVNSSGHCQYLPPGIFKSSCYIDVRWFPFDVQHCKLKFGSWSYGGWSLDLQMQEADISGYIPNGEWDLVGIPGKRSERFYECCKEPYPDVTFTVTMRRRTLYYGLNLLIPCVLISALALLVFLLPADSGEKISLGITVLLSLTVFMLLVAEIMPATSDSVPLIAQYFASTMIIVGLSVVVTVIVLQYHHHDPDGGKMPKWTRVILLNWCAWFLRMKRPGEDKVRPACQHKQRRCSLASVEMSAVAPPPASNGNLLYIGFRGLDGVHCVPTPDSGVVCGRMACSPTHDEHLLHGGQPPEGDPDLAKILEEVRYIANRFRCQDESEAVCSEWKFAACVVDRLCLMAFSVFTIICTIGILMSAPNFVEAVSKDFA

For `O=C(c1ccc(Br)o1)N1CC2CNCC(C2)C1`, the EC50 in assay [1] stood at 8.3 µM; in assay [7], 30 µM. Besides, the Ki in assay [2] is 0.026 µM; in [4] it was 0.1 µM; in assay [5], 6.5 µM; in [6], greater than 10 µM. For the same compound, the Emax in assay [3] worked out at 28%; in [8] it was 23%.
For `O=C(c1cc(Cl)co1)N1CC2CNCC(C2)C1`, the EC50 was found to be 100 µM in [1] and 54 µM in [7]. Besides, the Ki in [2] was 0.005 µM; in [4], 0.04 µM; in assay [5], 6.6 µM; in assay [6], greater than 10 µM. Besides, the Emax came out at 27% in [3] and 11% in [8].
In the case of `O=C(c1occc1Cl)N1CC2CNCC(C2)C1`, the EC50 in assay [1] was determined as 76 µM; in assay [7], 28 µM. The Ki in assay [2] was 0.015 µM; in [4], 0.12 µM; in [5] it was 8.7 µM; in [6], greater than 10 µM. Also, the Emax in [3] was found to be 26%; in [8], 3%.
Regarding `O=C(c1occc1Br)N1CC2CNCC(C2)C1`, the EC50 in assay [1] was 8.6 µM; in assay [7], 24 µM. Also, the Ki in [2] was 0.023 µM; in [4], 0.13 µM; in assay [5], 6.5 µM; in assay [6] it was greater than 10 µM. For the same compound, the values for the Emax in assay [3] and in assay [8] were 20% and 8%, respectively.
Take `N#Cc1ccoc1C(=O)N1CC2CNCC(C2)C1`: the EC50 in [1] amounted to 26 µM; in assay [7] it was 21 µM. For the same compound, the Ki in [2] was 0.039 µM; in assay [4] it was 0.28 µM; in assay [5], greater than 10 µM; in assay [6] it was greater than 10 µM. Further, the Emax stood at 16% in [3] and 8% in assay [8].
In the case of `Cc1ccc(C(=O)N2CC3CNCC(C3)C2)o1`, the EC50 in assay [1] was 8.5 µM; in assay [7], 37 µM. The Ki in assay [2] is 0.046 µM; in assay [4] it was 0.24 µM; in [5] it was greater than 10 µM; in assay [6], greater than 10 µM. In addition, the Emax in assay [3] is 11%; in assay [8], 19%.
For `O=C(c1cc(F)co1)N1CC2CNCC(C2)C1`, the EC50 stood at 0.8 µM in [1] and 22 µM in assay [7]. For the same compound, the Ki in assay [2] was 0.022 µM; in [5] it was 3.2 µM; in assay [6], greater than 10 µM. Further, the figures for the Emax in [3] and in assay [8] were 93% and 66%, respectively.
With `Cc1ccoc1C(=O)N1CC2CNCC(C2)C1`, the EC50 in [1] and in assay [7] was 25 µM in each case. For the same compound, the Ki was 0.19 µM in [2], 0.65 µM in assay [4], greater than 10 µM in assay [5] and greater than 10 µM in assay [6]. Also, the Emax worked out at 11% in assay [3] and 9% in assay [8].
Consider `O=C(c1occc1F)N1CC2CNCC(C2)C1`, for which the EC50 worked out at 22 µM in [1] and 32 µM in assay [7]. The Ki is 0.05 µM in assay [2], 0.21 µM in [4], greater than 10 µM in [5] and greater than 10 µM in [6]. Besides, the Emax in assay [3] amounted to 54%; in [8] it was 15%.
Regarding `N#Cc1ccc(C(=O)N2CC3CNCC(C3)C2)o1`, the EC50 was 7.1 µM in assay [1] and 34 µM in assay [7]. The Ki was 0.008 µM in assay [2], 0.078 µM in [4], 21 µM in assay [5] and greater than 10 µM in assay [6]. Further, the values for the maximal effect (Emax) in assay [3] and in [8] were 64% and 58%, respectively.
Turning to `N#Cc1coc(C(=O)N2CC3CNCC(C3)C2)c1`, the EC50 in assay [1] is 110 µM; in [7] it was 35 µM. Further, the values for the Ki in [2], in assay [5] and in assay [6] were 0.033 µM, greater than 10 µM and greater than 10 µM, respectively. For the same compound, the Emax in [3] stood at 19%; in assay [8], 20%.
For the compound `O=C(c1ccno1)N1CC2CNCC2C1` (centres undefined), the Ki in assay [2] was determined as 0.049 µM; in assay [4], 0.047 µM; in assay [5], 7.1 µM; in assay [6], 19 µM. For the same compound, the Emax was found to be 17% in [3] and 150% in [10]. The results for the EC50 in [9] and in assay [7] were 6.8 µM and 66 µM, respectively.
Take `O=C(c1cc(Br)co1)N1CC2CNCC2C1` (centres undefined): the Ki came out at 0.016 µM in [2], 0.091 µM in [4], 7.7 µM in [5] and 4.6 µM in assay [6]. Further, the Emax in [3] worked out at 45%; in [10], 15%. Further, the EC50 was 6.5 µM in [9] and 36 µM in [7].
As for `O=C(c1ncco1)N1CC2CNCC2C1` (centres undefined), the Ki in [2] amounted to 0.34 µM; in assay [4], 0.47 µM; in assay [5] it was 100 µM; in [6], 14 µM. The Emax in [3] was found to be 5%; in [10] it was 65%. The results for the EC50 in assay [9] and in [7] were 31 µM and 79 µM, respectively.
As for `O=C(C1CC1)N1C[C@@H]2CN[C@H](C2)C1`, the Ki worked out at 0.001 µM in assay [2], 0.022 µM in assay [4], 0.2 µM in assay [5] and 0.21 µM in [6]. Also, the values for the Emax in assay [3] and in assay [10] were 180% and 130%, respectively. The figures for the EC50 in assay [9] and in assay [7] were 0.45 µM and 1.8 µM, respectively.
As for `O=C(c1ccc(F)o1)N1CC2CNCC(C2)C1`, the EC50 amounted to 0.3 µM in assay [1] and 9.1 µM in assay [7]. Also, the Ki was found to be 0.003 µM in assay [2], 0.015 µM in assay [4], 1.1 µM in assay [5] and 4.7 µM in assay [6]. For the same compound, the Emax in assay [3] came out at 110%; in assay [8], 73%.
In the case of `Cc1ncoc1C(=O)N1CC2CNCC2C1` (centres undefined), the Ki in assay [2] amounted to 0.008 µM; in [4], 0.06 µM; in assay [5] it was 22 µM; in assay [6], 5.9 µM. Moreover, the Emax in assay [3] stood at 51%; in assay [10], 110%. Besides, the figures for the EC50 in assay [9] and in [7] were 6.8 µM and 33 µM, respectively.
For `O=C(c1ccco1)N1C[C@@H]2CN[C@H](C2)C1`, the Ki in assay [2] worked out at 0.013 µM; in assay [4], 0.011 µM; in assay [5], 0.45 µM; in [6], 5.5 µM. The results for the Emax in [3] and in assay [10] were 130% and 36%, respectively. Also, the EC50 was 7.4 µM in [9] and 15 µM in assay [7].
Turning to `O=C(c1ccc(F)o1)N1C[C@H]2CN[C@@H](C2)C1`, the Ki turned out to be 0.012 µM in assay [2], 0.12 µM in assay [4], 0.6 µM in [5] and 1.6 µM in assay [6]. Besides, the Emax in [3] and in [10] was 120% each time. Further, the EC50 was 1.7 µM in assay [9] and 4 µM in assay [7].
With `O=C(c1ccc(Br)o1)N1CC2CNCC2C1` (centres undefined), the Ki is 0.074 µM in assay [2], 0.24 µM in assay [4], 7.2 µM in assay [5] and greater than 10 µM in assay [6]. Further, the Emax in assay [3] worked out at 25%; in assay [10], 40%. The EC50 in [9] came to 22 µM; in assay [7], 29 µM.
In the case of `COc1ccc(C(=O)N2CC3CNCC3C2)cc1` (centres undefined), the Ki in [2] was 0.026 µM; in [4], 0.14 µM; in assay [5], 8.4 µM; in [6], 100 µM. The Emax came out at 22% in [3] and 9% in [10]. Moreover, the EC50 is 43 µM in assay [9] and 31 µM in assay [7].
For `O=C(c1ccncc1)N1CC2CNCC(C2)C1`, the Ki in [2] is 0.037 µM; in assay [4] it was 0.057 µM; in assay [5], greater than 10 µM; in assay [6], greater than 10 µM. For the same compound, the Emax stood at 6% in assay [3] and 7% in [10]. For the same compound, the 50% effective concentration (EC50) stood at 19 µM in assay [9] and 54 µM in assay [7].
For `O=C(c1cc(Cl)co1)N1CC2CNCC2C1` (centres undefined), the Ki was 0.011 µM in assay [2], 0.065 µM in assay [4], 7.1 µM in assay [5] and greater than 10 µM in assay [6]. Further, the values for the Emax in assay [3] and in assay [10] were 53% and 39%, respectively. Moreover, the EC50 in [9] amounted to 11 µM; in assay [7], 56 µM.
As for `O=C(c1ccccn1)N1CC2CNCC2C1` (centres undefined), the Ki in [2] came out at 0.25 µM; in assay [4], 0.34 µM; in [5] it was 21 µM; in [6], 100 µM. Besides, the figures for the Emax in [3] and in assay [10] were 3% and 44%, respectively. Moreover, the half-maximal effective concentration (EC50) was found to be 34 µM in assay [9] and 51 µM in assay [7].
Consider `O=C(c1cc(Br)co1)N1CC2CNCC(C2)C1`, for which the EC50 was found to be 18 µM in assay [1] and 50 µM in assay [7]. Besides, the Ki in [2] was 0.003 µM; in [4] it was 0.057 µM; in assay [5], 9.3 µM; in [6], greater than 10 µM. In addition, the Emax in assay [3] was determined as 13%; in assay [8], 34%.
`O=C(c1ccco1)N1CC2CNCC(C2)C1`: the Ki in [2] worked out at 0.02 µM; in [4], 0.029 µM; in [5], 8.1 µM; in [6], 8.2 µM. The values for the Emax in assay [3] and in [10] were 57% and 65%, respectively. For the same compound, the EC50 in [9] was found to be 1.9 µM; in [7], 43 µM.
In the case of `O=C(C1CC1)N1C[C@H]2CN[C@@H](C2)C1`, the Ki in assay [2] turned out to be 0.007 µM; in assay [4] it was 0.01 µM; in [5], 0.11 µM; in assay [6] it was 0.04 µM. For the same compound, the values for the Emax in [3] and in assay [10] were 140% and 100%, respectively. In addition, the values for the EC50 in assay [9] and in assay [7] were 1.7 µM and 1.4 µM, respectively.
